Drawing on patent publication US20090131470A1, “PYRAZOLE-SUBSTITUTED BENZIMIDAZOLE DERIVATIVES FOR USE IN THE TREATMENT OF CANCER AND AUTOIMMUNE DISORDERS” (priority 2005, published 2009), this text covers IC50 for 15 compounds.

Bounds are passed on as bounds.

Common to all, as to format: biochemical
One test concerns the target T1, PKA (Homo sapiens, UniProt P17612).
T1 construct: purchased Upstate
The test is described as follows: PKA kinase assay (Kemptide substrate). To be noted: 100 μM ATP. The method, then: (§1) The assay mixture containing the inhibitor and CDK-2 enzyme, complexed with cyclin A (0.4 U/ml) was mixed together in a microtiter plate in a final volume of 50 μl and incubated for 40 min at 30° C. The assay mixture contained 0.1 mM unlabeled ATP, 0.01 μCi/μl ^33P-γ-ATP, 0.03 mM peptide, 0.1 mg/ml BSA, 7.5 mM magnesium acetate, 50 mM HEPES-NaOH, pH 7.5. The reaction was stopped by adding 50 μl of 50 mM phosphoric acid. 90 μl of the mixture were transferred to a pre-wetted 96-well Multiscreen MAPHNOB filtration plate (Millipore) and filtered on a vacuum manifold. The filter plate was washed with 3 successive additions of 200 μl 50 mM phosphoric acid and then with 100 μl methanol. The filtration plate was dried for 10 min at 65° C., scintillant added and phosphorylated peptide quantified in a scintillation counter (Trilux, PerkinElmer)
The PKA assay was incubated at 30° C. for 30 minutes.

The target of another test is T2, Akt1 (Homo sapiens, UniProt P31749).
T2 construct: purchased Upstate
T2 sequence (P31749 whole entry, species assumed): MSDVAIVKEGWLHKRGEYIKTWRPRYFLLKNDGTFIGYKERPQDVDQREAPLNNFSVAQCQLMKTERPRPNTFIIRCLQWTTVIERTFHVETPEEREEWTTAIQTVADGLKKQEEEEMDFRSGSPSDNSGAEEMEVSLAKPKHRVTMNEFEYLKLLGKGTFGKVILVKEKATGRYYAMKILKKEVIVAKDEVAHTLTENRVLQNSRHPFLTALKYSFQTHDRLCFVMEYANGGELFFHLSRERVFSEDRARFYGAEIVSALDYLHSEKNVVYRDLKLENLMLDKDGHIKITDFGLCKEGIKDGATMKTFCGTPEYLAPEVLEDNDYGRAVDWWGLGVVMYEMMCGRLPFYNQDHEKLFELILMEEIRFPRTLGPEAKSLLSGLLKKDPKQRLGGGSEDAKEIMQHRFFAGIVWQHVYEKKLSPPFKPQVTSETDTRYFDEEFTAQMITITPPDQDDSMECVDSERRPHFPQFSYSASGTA
As to the kind of experiment: Akt1 kinase assay (Histone H1 substrate). The note with it: 200 μM ATP, read-out: AKT-1 IC50. The method, then:
Assays for the cyclin dependent kinase activity were carried out by monitoring the phosphorylation of a synthetic peptide, HATTPKKKRK. The assay mixture containing the inhibitor and CDK-2 enzyme, complexed with cyclin A (0.4 U/ml) was mixed together in a microtiter plate in a final volume of 50 μl and incubated for 40 min at 30° C. The assay mixture contained 0.1 mM unlabeled ATP, 0.01 μCi/μl ^33P-γ-ATP, 0.03 mM peptide, 0.1 mg/ml BSA, 7.5 mM magnesium acetate, 50 mM HEPES-NaOH, pH 7.5. The reaction was stopped by adding 50 μl of 50 mM phosphoric acid. 90 μl of the mixture were transferred to a pre-wetted 96-well Multiscreen MAPHNOB filtration plate (Millipore) and filtered on a vacuum manifold. The filter plate was washed with 3 successive additions of 200 μl 50 mM phosphoric acid and then with 100 μl methanol. The filtration plate was dried for 10 min at 65° C., scintillant added and phosphorylated peptide quantified in a scintillation counter (Trilux, PerkinElmer)
Protocol for the Akt assay is the same for CDK2 except that, 3 nM Akt1 (Upstate) was used with Histone H1 as substrate with a final ATP concentration of 200 μM. The reaction was incubated at 30° C. for 40 minutes.

A further test deals with T3, PDK1 (Homo sapiens, UniProt O15530).
T3 sequence (O15530 1-556): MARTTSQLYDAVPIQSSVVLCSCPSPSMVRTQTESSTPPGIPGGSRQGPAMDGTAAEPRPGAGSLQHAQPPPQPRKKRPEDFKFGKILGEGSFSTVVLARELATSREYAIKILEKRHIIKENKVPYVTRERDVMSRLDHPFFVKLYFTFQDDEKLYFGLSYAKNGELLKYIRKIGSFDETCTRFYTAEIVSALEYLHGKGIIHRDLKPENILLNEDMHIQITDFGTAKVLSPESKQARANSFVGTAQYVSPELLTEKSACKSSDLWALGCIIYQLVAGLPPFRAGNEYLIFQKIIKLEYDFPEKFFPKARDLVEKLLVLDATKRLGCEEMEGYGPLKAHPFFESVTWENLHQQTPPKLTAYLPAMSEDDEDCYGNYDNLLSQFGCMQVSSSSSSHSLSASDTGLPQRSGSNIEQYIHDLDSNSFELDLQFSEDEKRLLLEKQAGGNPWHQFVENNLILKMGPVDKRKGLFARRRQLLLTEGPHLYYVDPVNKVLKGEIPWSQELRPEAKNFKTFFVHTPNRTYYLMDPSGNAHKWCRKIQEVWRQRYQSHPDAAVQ
The test is described as follows: PDK1 kinase assay (33P peptide phosphorylation). To be noted: 0.01 mM ATP, 60 min at 30° C.; read-out: PDK-1 IC50. The method, then: as §1, with “and PDK1 enzyme” for “and CDK-2 enzyme, complexed with cyclin A (0.4 U/ml)”, “for 60” for “for 40”, “contained 0.01” for “contained 0.1”, “^33P-γ-ATP, 0.075” for “^33P-γ-ATP, 0.03”, “acetate, 0.05M Tris.HCl,” for “acetate, 50 mM HEPES-NaOH,”, “pH 7.5, 0.5% 2-mercaptoethanol.” for “pH 7.5.”

For test [1], the target named is CDK-2 enzyme, complexed with cyclin A (Homo sapiens, UniProt P24941). As to the kind of experiment: CDK2 kinase assay (33P peptide phosphorylation). The note with it: 0.1 mM ATP, cyclin A complex. The method, then: as §1
The target of a further test is T4, GST-Chk1 enzyme (Homo sapiens, UniProt O14757).
T4 sequence (O14757 1-476): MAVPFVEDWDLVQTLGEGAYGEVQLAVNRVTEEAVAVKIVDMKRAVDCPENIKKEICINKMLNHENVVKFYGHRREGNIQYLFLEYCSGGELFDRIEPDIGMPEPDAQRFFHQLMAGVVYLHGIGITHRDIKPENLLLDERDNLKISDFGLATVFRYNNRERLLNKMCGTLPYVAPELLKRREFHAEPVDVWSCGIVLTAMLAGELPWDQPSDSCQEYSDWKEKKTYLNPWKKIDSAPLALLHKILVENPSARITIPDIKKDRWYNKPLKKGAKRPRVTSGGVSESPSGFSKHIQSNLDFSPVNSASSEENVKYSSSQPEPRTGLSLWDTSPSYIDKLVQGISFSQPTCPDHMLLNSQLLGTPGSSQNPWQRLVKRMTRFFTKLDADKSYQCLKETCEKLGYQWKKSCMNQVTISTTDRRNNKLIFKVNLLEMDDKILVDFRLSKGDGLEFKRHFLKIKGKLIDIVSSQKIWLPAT
The test is described as follows: Chk1 kinase assay (33P Chktide phosphorylation). The note with it: 0.01 mM ATP, 40 minutes at 30° C.; read-out: CHK-1 IC50. The method, then:
as §1, with “and Chk1 enzyme” for “and CDK-2 enzyme, complexed with cyclin A (0.4 U/ml)”, “40 minutes” for “40 min”, “C. […]” for “C. The assay mixture contained 0.1 mM unlabeled ATP, 0.01 μCi/μl ^33P-γ-ATP, 0.03 mM peptide, 0.1 mg/ml BSA, 7.5 mM magnesium acetate, 50 mM HEPES-NaOH, pH 7.5.”, “mixture was” for “mixture were”, “96-well multi-screen” for “96-well Multiscreen”

Take `Cc1[nH]nc(-c2nc3ccc(C(=O)NCC(C)c4ccccc4)cc3[nH]2)c1C(=O)NC1CCNCC1` (stereo not drawn) [Example 32]: the IC50 (commonly the concentration that inhibits the measured activity by half) is 6.5 µM at PKA; 18.1 µM on Akt1; 0.036 µM at PDK1; 15.6 µM in test [1]; 0.003 µM at GST-Chk1 enzyme.
On the same counts, the results for `Cc1[nH]nc(-c2nc3c(F)c(F)ccc3[nH]2)c1C(=O)NC1CCNCC1` [Example 12] are 20.9 µM, greater than 50 µM, 0.485 µM, 10.5 µM and 0.609 µM.
The like results for `Cc1[nH]nc(-c2nc3cc4ccccc4cc3[nH]2)c1C(=O)NC1CCNCC1` [Example 5, 5-Methyl-3-(1H-naphtho[2,3-d]imidazol-2-yl)-1H-pyrazole-4-carboxylic Acid piperidine-4-ylamide] were, in that order, 3.24 µM, greater than 50 µM, 0.058 µM, 4.54 µM and 0.01 µM.
The like results for `Cc1cc2nc(-c3n[nH]c(C)c3C(=O)NC3CCCNC3)[nH]c2cc1C` (stereo not drawn) [Example 2, 3-(5,6-Dimethyl-1H-benzoimidazol-2-yl)-5-methyl-1H-pyrazole-4-carboxylic Acid piperidin-3-ylamide] were, in that order, 7.84 µM, 15.9 µM, 0.219 µM, 3.6 µM and 0.055 µM.
For the compound `CCOC(=O)c1ccc2nc(-c3n[nH]c(C)c3C(=O)NC3CCNCC3)[nH]c2c1` [Example 6, 2-[5-Methyl-4-(piperidin-4-ylcarbamoyl)-1H-pyrazol-3-yl]-3H-benzimidazole-5-carboxylic Acid Ethyl Ester], the IC50 at PKA is 40.2 µM; on Akt1, greater than 50 µM; on PDK1 it was 0.433 µM; in test [1], 39.5 µM; on GST-Chk1 enzyme it was 0.023 µM.
On the same counts, the results for `Cc1cc2nc(-c3n[nH]c(C)c3C(=O)NC3CCN(C)CC3)[nH]c2cc1C` [Example 29] are 5.98 µM, greater than 50 µM, 0.18 µM, 8.24 µM and 0.016 µM.
For the compound `Cc1[nH]nc(-c2nc3ccccc3[nH]2)c1C(=O)NCCCCN` [Example 16], the IC50 at PKA was 20.7 µM; at Akt1, greater than 50 µM; at PDK1, 0.249 µM; in test [1], 43.5 µM; at GST-Chk1 enzyme it was 0.213 µM.
On to `Cc1[nH]nc(-c2nc3ccc(-c4cc5ccccc5[nH]4)cc3[nH]2)c1C(=O)NC1CCNCC1` [Example 8, 3-[6-(1H-Indol-2-yl)-1H-benzimidazo-2-yl]-5-methyl-1H-pyrazole-4-carboxylic Acid piperidin-4-ylamide], for which the IC50 came to 1.34 µM against PKA; 5.84 µM at Akt1; 0.019 µM on PDK1; 2.8 µM in test [1]; 0.012 µM at GST-Chk1 enzyme.
Take `Cc1[nH]nc(-c2nc3cc(Cl)c(Cl)cc3[nH]2)c1C(=O)NC1CCNCC1` [Example 15]: the IC50 is 8.85 µM on PKA; greater than 50 µM at Akt1; 0.123 µM at PDK1; 4.77 µM in test [1]; 0.295 µM at GST-Chk1 enzyme.
On the same counts, the results for `Cc1[nH]nc(-c2nc3cc4ccccc4cc3[nH]2)c1C(=O)NCC1CCCN1` (stereo not drawn) [Example 26] are 34.7 µM, greater than 50 µM, 0.521 µM, 34.2 µM and 0.309 µM.
The like results for `Cc1[nH]nc(-c2nc3ccc(NC(=O)C(C)C)cc3[nH]2)c1C(=O)NC1CCN(C)CC1` [Example 21] were, in that order, 13.1 µM, greater than 50 µM, 0.074 µM, 21.3 µM and 0.006 µM.
Consider `Cc1[nH]nc(-c2nc3ccc(C(=O)NC4CCCC4)cc3[nH]2)c1C(=O)NC1CCNCC1` [Example 7, 2-[5-Methyl-4-(piperidin-4-ylcarbamoyl)-1H-pyrazol-3-yl]-3H-benzimidazole-5-carboxylic Acid Cyclopentylamide], for which the IC50 on PKA was found to be 12.6 µM; on Akt1, 28.6 µM; at PDK1, 0.07 µM; in test [1], 9.24 µM; at GST-Chk1 enzyme, 0.043 µM.
The like results for `Cc1[nH]nc(-c2nc3ccc(C(=O)NCC(O)c4ccccc4)cc3[nH]2)c1C(=O)NC1CCNCC1` (stereo not drawn) [Example 35] were, in that order, 5.31 µM, 10.6 µM, 0.057 µM, 13.8 µM and 0.037 µM.
On the same counts, the results for `Cc1[nH]nc(-c2nc3ccc(C(F)(F)F)cc3[nH]2)c1C(=O)NC1CCNCC1` [Example 38] are 16.9 µM, greater than 10 µM, 0.032 µM, 19.3 µM and 0.058 µM.
The like results for `Cc1[nH]nc(-c2nc3ccc(NC(=O)CC(C)C)cc3[nH]2)c1C(=O)NC1CCN(C)CC1` [Example 33] were, in that order, 13.1 µM, 47.5 µM, 0.095 µM, 21.3 µM and 0.003 µM.
